From US8216785B2, “Method for detecting neuroblastoma” (Fujifilm Corporation, priority 2008, dated 2012)
Non-standard residues stand in square brackets, D forms with d. Residues, ends and D or L forms follow the SMILES beside them. *: point of attachment. Nle = CCCC[C@H](N)C(=O)O; Cbz = O=C(OCc1ccccc1)*; CH2F = FC*

How the values were obtained:
Format in all cases: cell-based
IMR32 cells = assay: Frequency of dead cells via trypan blue exclusion after adenovirus infection; conditions: zVAD 100 μM
Method: (§1) The cells that had been sowed under the same conditions as in (b) were infected with the same MOIs of Ad-LacZ or Ad-LAPTM5. Also, the cell lines were treated or not treated with the pan-caspase inhibitor, zVAD-fink. The number of dead cells was determined via trypan blue exclusion 2 days and 4 days after infection and was indicated in terms of percentage. A vertical line represents the standard deviation of two experiments.
(§2) In order to inspect whether or not LAPTM5 expression is associated with cell death of neuroblastoma cells, the influence of forced LAPTM5 expression in the neuroblastoma cell line was inspected using the adenovirus-mediated expression system. Cell death and the survival rate were assayed by sowing the cells on a 24-well plate and infecting the cells with the selected MOIs of viruses (multiplicities of infection; PFU/cell). The number of dead cells was determined via trypan blue exclusion 2 or 4 days after infection. The pan-caspase inhibitor, zVAD-fml, was used at a concentration of 100 μM. At least 200 cells were counted in each experiment. The number of survived cells was determined via colorimetric assay using a water-soluble tetrazolium salt (the cell counting kit-8; Dojindo Laboratories).

GOTO cells [1] = assay: as above; conditions: zVAD 100 μM
Method: as §1, §2

[2] = test system: LAPTM5 in Ad-LAPTM5-infected GOTO cells; assay: LAPTM5 accumulation upon blocking proteasomal or lysosomal degradation, Western blot and fluorescent staining; conditions: treated one day after Ad-LAPTM5 infection for additional one day
Method: The cells were treated with a proteasome inhibitor (ALLN or MG132) or a lysosomal degradation inhibitor (Bafilimycin A1 or […]) 1 day later. The cells were recovered 1 day later, the samples were prepared, and Western blot analysis was then carried out. The prepared samples were subjected to SDS-PAGE, and Western blot analysis was carried out using relevant antibodies.
As with the case of (a), the cells were treated, fixed, subjected to the immune reaction using the LAPTM5 antibody, and visualized with the use of the Texas Red complex secondary antibody.
After the control or LAPTM5 siRNA was transfected, the cells were treated as with the case of (a), and the samples were prepared. Western blot analysis was carried out using the LAPTM5 antibody.
(§3) Accordingly, whether or not LAPTM5 would undergo proteasomal or lysosomal proteolysis and whether or not LAPTM5 accumulation would be important for cell death were inspected. One day after Ad-LAPTM5 infection, the cells were treated with a proteasome inhibitor (ALLN or MG132) or a lysosome inhibitor (Bailomycin A1 and NH4Cl) for additional one day. Thereafter, the cells were recovered, samples were prepared, and Western blot analysis was performed. […] Further, this accumulation was also confirmed via fluorescent staining using the LAPTM5 antibody (FIG. 4b). […] Thus, LAPTM5 was considered to undergo proteasomal and lysosomal proteolysis, and LAPTM5 accumulation was considered to be deeply involved with induction of cell death. In order to examine whether or not LAPTM5 accumulation would be essential for induction of cell death, the influence of transfection of siRNA against LAPTM5 was then examined.

[3] = test system: Ad-LAPTM5-infected GOTO cells; assay: Cell death frequency along with LAPTM5 accumulation, trypan blue exclusion; conditions: treated one day after Ad-LAPTM5 infection for additional one day
Method: As in the case of (a), the cells that had died upon treatment were assayed via trypan blue exclusion. A vertical line represents the standard deviation of two experiments.
as §3

[4] = test system: GOTO cells that stably express GFP-LC3; assay: Treatment with an LMP inducer, immunoblot of GFP-LC3 type II and p62/SQSTM1; conditions: CPX 100 or 300 μg/ml
Method: The GOTO cells (1×10^6 cells/well) that stably express GFP-LC3 were sowed on a 6-well plate and treated with ciprofloxican (CPX) (100 or 300 μg/ml) or a solvent thereof (0.1N hydrochloric acid) so as to induce LMP. The total cell extract obtained from the treated cells was electrophoresed via SDS-PAGE and subjected to immunoblot analysis using antibodies reacting with relevant proteins.
LAPTM5 is known to be a membrane protein that localizes in the lysosome. […] Such changes in LTR staining patterns result from LMP, which indicates destabilization and destruction of the lysosome. LMP was observed along with an increase in LAPTM5-induced cell death (2.7 times in GOTO cell (p=0.0007) and 5.4 times in IMR32 cell (p=0.0108), compared with Ad-LacZ cell; FIG. 11). […] Accordingly, LAPTM5-induced LMP was deduced to induce blocking of the autophagy pathway. […] In conformity with the results of in vitro observation, elevated expression of p62/SQSTM1, ubiquitinated proteins, and cathepsin D was also observed via immunohistological staining (FIG. 3f). […] At the same time, lysosome instability induced by LAPTM5 was considered to induce accumulation of immature autophagic vesicles and ubiquitinated proteins.

GOTO cells [5] = assay: Treatment with MPP+ or H2O2: cell death, LAPTM5 expression (quantitative RT-PCR), MYCN expression (Western blot); conditions: for LAPTM5 expression / frequency of cell death: MPP+ 1 or 2 mM 24 hours, H2O2 100 or 200 uM 48 hours; for MYCN expression: MPP+ or H2O2 treatment
Method: In FIG. 5(a), the GOTO cells were treated with MPP+ (1 or 2 mM) for 24 hours or with H2O2 (100 or 200 uM) for 48 hours. Thereafter, the dead cells were assayed via trypan blue exclusion. The LAPTM5 expression level was analyzed via quantitative RT-PCR. A vertical line represents the standard deviation of two experiments.
The prepared samples were subjected to SDS-PAGE, and Western blot analysis was carried out using relevant antibodies.
The cause for NB cell degeneration upon regression of favorable NB tumors has not yet been elucidated. […] This indicates a common mechanism between NB tumor regression and cell degeneration in the case of neurodegenerative diseases. Mitochondrial injury and oxidative stress are known to be deeply involved in neuron degeneration in the case of neurodegenerative disease. […] MYCN proteins are known to not only activate but also suppress transcription of various target genes. Accordingly, MYCN proteins that have been activated via amplification were considered to suppress activation of LAPTM5 transcription induced by stress. Thus, whether or not MYCN would directly bind to a site in the vicinity of the transcription initiation point of the LAPTM5 gene was inspected via ChIP assay. […] Meanwhile, the IMR32 cell line is known to differentiate into nerve cells via treatment with retinoic acid.

COC(=O)C[C@H](NC(=O)[C@H](C)NC(=O)[C@@H](NC(=O)OCc1ccccc1)C(C)C)C(=O)CF [zVAD-fmk] (Cbz-Val-Ala-Asp(OMe)-CH2F)
inhibition of Ad-LAPTM5-induced cell death by caspase inhibitor (IMR32 cells): would not be inhibited | inhibition of Ad-LAPTM5-induced cell death by caspase inhibitor (GOTO cells [1]): would not be inhibited

Cl.N [NH4Cl]
accumulation of expressed LAPTM5 [2]: significantly accumulated | cell death frequency [3]: significantly increased

CC(C)C[C@@H](C=O)NC(=O)[C@H](CC(C)C)NC(=O)[C@H](CC(C)C)NC(=O)OCc1ccccc1 [MG132] (Cbz-Leu-Leu-Leu-aldehyde)
accumulation of expressed LAPTM5 [2]: significantly accumulated | cell death frequency [3]: significantly increased

CCCC[C@@H](C=O)NC(=O)[C@H](CC(C)C)NC(=O)[C@H](CC(C)C)NC(C)=O [ALLN] (Ac-Leu-Leu-[Nle]-aldehyde)
accumulation of expressed LAPTM5 [2]: significantly accumulated | cell death frequency [3]: significantly increased

O=C(O)c1cn(C2CC2)c2cc(N3CCNCC3)c(F)cc2c1=O [ciprofloxacin]
LC3-II detection [4]: LC3-II was detected | p62/SQSTM1 protein accumulation [4]: p62/SQSTM1 protein accumulation was observed

C[n+]1ccc(-c2ccccc2)cc1 [MPP+, 1-methyl-4-phenylpridinium]
LAPTM5 expression (GOTO cells [5]): activated | frequency of cell death (GOTO cells [5]): frequency of concentration-dependent cell death increased | MYCN expression (GOTO cells [5]): decrease

CO/C1=C\C(C)=C\[C@@H](C)[C@@H](O)[C@@H](C)C/C(C)=C/C=C/[C@H](OC)[C@@H]([C@@H](C)[C@@H](O)[C@H](C)[C@@]2(O)C[C@@H](O)[C@H](C)[C@@H](C(C)C)O2)OC1=O [Bafilomycin A1]
accumulation of expressed LAPTM5 [2]: significantly accumulated | cell death frequency [3]: significantly increased

OO [H2O2]
LAPTM5 expression (GOTO cells [5]): activated | frequency of cell death (GOTO cells [5]): frequency of concentration-dependent cell death increased | MYCN expression (GOTO cells [5]): decrease
